Reference: patent US12077503B2, “Substituted cyclic amides and their use as herbicides” (FMC CORPORATION, priority 2015, dated 2024)

Legend:
Format in all cases: in vivo
[1] = tested on: ivy-leaved morning glory (Ipomoea hederacea); experiment: Test G Pre-Emergence Protocol; conditions: Ipomoea, pre-emergence, 312 h, evaluated after 13 days; for pest or weed control at 15.625 g/ha: 15.625 g ai/ha, read-out: Morning-glory, Ivy-leaved damage rating (100=total damage to plant; 0=no damage to plant); for pest or weed control at 62.5 g/ha: 62.5 g ai/ha, 100=total damage to plant, 0=no damage to plant, read-out: plant damage rating, Morningglory, Ivy-leaved; for pest or weed control at 250 g/ha: 250 g ai/ha, read-out: Morningglory, Ivy-leaved damage rating (100=total damage to plant; 0=no damage to plant)
Procedure, shortened: (§1)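 Glasshouse pre-emergence test: soil-sown seeds, sprayed after 1 d at 15.625, 62.5 or 250 g/ha. Conditions 24/16° C day/night, 14 h light, 65% humidity, watering twice daily. Rating 13 d post-spray (100 = total damage).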

[2] = tested on: velvetleaf (Abutilon theophrasti); experiment: Test G Pre-Emergence Protocol; conditions: Abutilon theophrasti, pre-emergence, 312 h, evaluated after 13 days; for pest or weed control at 15.625 g/ha: 15.625 g ai/ha; for pest or weed control at 15.625 g/ha / pest or weed control at 250 g/ha: read-out: Velvetleaf damage rating (100=total damage to plant; 0=no damage to plant); for pest or weed control at 62.5 g/ha: 62.5 g ai/ha, 100=total damage to plant, 0=no damage to plant, read-out: plant damage rating, Velvetleaf; for pest or weed control at 250 g/ha: 250 g ai/ha
Procedure, shortened: as §1

[3] = tested on: barnyardgrass (Echinochloa crus-galli); experiment: Test G Pre-Emergence Protocol; conditions: Echinochloa crus-galli, pre-emergence, 312 h, evaluated after 13 days; for pest or weed control at 15.625 g/ha: 15.625 g ai/ha, read-out: Barnyard grass damage rating (100=total damage to plant; 0=no damage to plant); for pest or weed control at 62.5 g/ha: 62.5 g ai/ha, 100=total damage to plant, 0=no damage to plant, read-out: plant damage rating, Barnyardgrass; for pest or weed control at 250 g/ha: 250 g ai/ha, read-out: Barnyardgrass damage rating (100=total damage to plant; 0=no damage to plant)
Procedure, shortened: as §1

[4] = tested on: giant foxtail (Setaria faberi); experiment: Test G Pre-Emergence Protocol; conditions: Setaria faberi, pre-emergence, 312 h, evaluated after 13 days; for pest or weed control at 15.625 g/ha: 15.625 g ai/ha; for pest or weed control at 15.625 g/ha / pest or weed control at 250 g/ha: read-out: Foxtail, Giant damage rating (100=total damage to plant; 0=no damage to plant); for pest or weed control at 62.5 g/ha: 62.5 g ai/ha, 100=total damage to plant, 0=no damage to plant, read-out: plant damage rating, Foxtail, Giant; for pest or weed control at 250 g/ha: 250 g ai/ha
Procedure, shortened: as §1

[5] = tested on: redroot pigweed (Amaranthus retroflexus); experiment: Test G Pre-Emergence Protocol; conditions: Amaranthus retroflexus, pre-emergence, 312 h, evaluated after 13 days; for pest or weed control at 15.625 g/ha: 15.625 g ai/ha; for pest or weed control at 15.625 g/ha / pest or weed control at 250 g/ha: read-out: Pigweed, Redroot damage rating (100=total damage to plant; 0=no damage to plant); for pest or weed control at 62.5 g/ha: 62.5 g ai/ha, 100=total damage to plant, 0=no damage to plant, read-out: plant damage rating, Pigweed, Redroot; for pest or weed control at 250 g/ha: 250 g ai/ha
Procedure, shortened: as §1

corn (Zea mays) [6] = experiment: Test G Pre-Emergence Protocol; conditions: Zea mays, pre-emergence, 312 h, evaluated after 13 days; for plant injury at 15.625 g/ha: 15.625 g ai/ha; for plant injury at 15.625 g/ha / plant injury at 250 g/ha: read-out: Corn damage rating (100=total damage to plant; 0=no damage to plant); for plant injury at 62.5 g/ha: 62.5 g ai/ha, 100=total damage to plant, 0=no damage to plant, read-out: plant damage rating, Corn; for plant injury at 250 g/ha: 250 g ai/ha
Procedure, shortened: as §1

[7] = tested on: ivy-leaved morning glory (Ipomoea hederacea); experiment: Test G Post-Emergence Protocol; conditions: Ipomoea, post-emergence, 312 h; for pest or weed control at 15.625 g/ha: 15.625 g ai/ha, evaluated after 13 days (100=total damage to plant; 0=no damage to plant), read-out: Morningglory, Ivy-leaved damage rating; for pest or weed control at 62.5 g/ha: 62.5 g ai/ha, read-out: Morningglory, Ivy-leaved damage rating (100=total damage to plant; 0=no damage to plant); for pest or weed control at 62.5 g/ha / pest or weed control at 250 g/ha: evaluated after 13 days; for pest or weed control at 250 g/ha: 250 g ai/ha, read-out: damage to plant, Morningglory, Ivy-leaved (100=total damage to plant; 0=no damage to plant)
Procedure, shortened: (§2)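 Pot-grown seedlings, 8 days old, raised in a glasshouse at 24/16 °C day/night with 14 h light and 65% humidity, were sprayed post-emergence with test compound in acetone/water (50:50) plus 0.5% Tween 20 at 15.625, 62.5 or 250 g/ha. Damage was scored visually 13 days later on a 0–100 scale (100 = total damage).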

[8] = tested on: velvetleaf (Abutilon theophrasti); experiment: Test G Post-Emergence Protocol; conditions: Abutilon theophrasti, post-emergence, 312 h; for pest or weed control at 15.625 g/ha: 15.625 g ai/ha, evaluated after 13 days (100=total damage to plant; 0=no damage to plant), read-out: Velvetleaf damage rating; for pest or weed control at 62.5 g/ha: 62.5 g ai/ha, read-out: Velvetleaf damage rating (100=total damage to plant; 0=no damage to plant); for pest or weed control at 62.5 g/ha / pest or weed control at 250 g/ha: evaluated after 13 days; for pest or weed control at 250 g/ha: 250 g ai/ha, read-out: damage to plant, Velvetleaf (100=total damage to plant; 0=no damage to plant)
Procedure, shortened: as §2

[9] = tested on: barnyardgrass (Echinochloa crus-galli); experiment: Test G Post-Emergence Protocol; conditions: Echinochloa crus-galli, post-emergence, 312 h; for pest or weed control at 15.625 g/ha: 15.625 g ai/ha, evaluated after 13 days (100=total damage to plant; 0=no damage to plant), read-out: Barnyardgrass damage rating; for pest or weed control at 62.5 g/ha: 62.5 g ai/ha, read-out: Barnyardgrass damage rating (100=total damage to plant; 0=no damage to plant); for pest or weed control at 62.5 g/ha / pest or weed control at 250 g/ha: evaluated after 13 days; for pest or weed control at 250 g/ha: 250 g ai/ha, read-out: damage to plant, Barnyardgrass (100=total damage to plant; 0=no damage to plant)
Procedure, shortened: as §2

[10] = tested on: giant foxtail (Setaria faberi); experiment: Test G Post-Emergence Protocol; conditions: Setaria faberi, post-emergence, 312 h; for pest or weed control at 15.625 g/ha: 15.625 g ai/ha, evaluated after 13 days (100=total damage to plant; 0=no damage to plant), read-out: Foxtail, Giant damage rating; for pest or weed control at 62.5 g/ha: 62.5 g ai/ha, read-out: Foxtail, Giant damage rating (100=total damage to plant; 0=no damage to plant); for pest or weed control at 62.5 g/ha / pest or weed control at 250 g/ha: evaluated after 13 days; for pest or weed control at 250 g/ha: 250 g ai/ha, read-out: damage to plant, Foxtail, Giant (100=total damage to plant; 0=no damage to plant)
Procedure, shortened: as §2

[11] = tested on: redroot pigweed (Amaranthus retroflexus); experiment: Test G Post-Emergence Protocol; conditions: Amaranthus retroflexus, post-emergence, 312 h; for pest or weed control at 15.625 g/ha: 15.625 g ai/ha, evaluated after 13 days (100=total damage to plant; 0=no damage to plant), read-out: Pigweed, Redroot damage rating; for pest or weed control at 62.5 g/ha: 62.5 g ai/ha, read-out: Pigweed, Redroot damage rating (100=total damage to plant; 0=no damage to plant); for pest or weed control at 62.5 g/ha / pest or weed control at 250 g/ha: evaluated after 13 days; for pest or weed control at 250 g/ha: 250 g ai/ha, read-out: damage to plant, Pigweed, Redroot (100=total damage to plant; 0=no damage to plant)
Procedure, shortened: as §2

corn (Zea mays) [12] = experiment: Test G Post-Emergence Protocol; conditions: Zea mays, post-emergence, 312 h; for plant injury at 15.625 g/ha: 15.625 g ai/ha, evaluated after 13 days (100=total damage to plant; 0=no damage to plant), read-out: Corn damage rating; for plant injury at 62.5 g/ha: 62.5 g ai/ha, read-out: Corn damage rating (100=total damage to plant; 0=no damage to plant); for plant injury at 62.5 g/ha / plant injury at 250 g/ha: evaluated after 13 days; for plant injury at 250 g/ha: 250 g ai/ha, read-out: damage to plant, Corn (100=total damage to plant; 0=no damage to plant)
Procedure, shortened: as §2

CN1C[C@@H](c2ccc(C(F)(F)F)cc2)[C@H](C(=O)Nc2cc(F)nc(F)c2)C1=O (racemic) [Compound 1515]
0%: pest or weed control at 15.625 g/ha [1] | pest or weed control at 62.5 g/ha [1] | pest or weed control at 250 g/ha [1] | pest or weed control at 15.625 g/ha [2] | pest or weed control at 62.5 g/ha [2] | pest or weed control at 250 g/ha [2] | pest or weed control at 15.625 g/ha [3] | pest or weed control at 62.5 g/ha [3] | pest or weed control at 250 g/ha [3] | pest or weed control at 15.625 g/ha [4] | pest or weed control at 62.5 g/ha [4] | pest or weed control at 250 g/ha [4] | pest or weed control at 15.625 g/ha [5] | pest or weed control at 62.5 g/ha [5] | pest or weed control at 250 g/ha [5] | plant injury at 15.625 g/ha (corn (Zea mays) [6]) | plant injury at 62.5 g/ha (corn (Zea mays) [6]) | plant injury at 250 g/ha (corn (Zea mays) [6]) | pest or weed control at 15.625 g/ha [7] | pest or weed control at 62.5 g/ha [7] | pest or weed control at 250 g/ha [7] | pest or weed control at 15.625 g/ha [8] | pest or weed control at 62.5 g/ha [8] | pest or weed control at 250 g/ha [8] | pest or weed control at 15.625 g/ha [9] | pest or weed control at 62.5 g/ha [9] | pest or weed control at 250 g/ha [9] | pest or weed control at 15.625 g/ha [10] | pest or weed control at 62.5 g/ha [10] | pest or weed control at 250 g/ha [10] | pest or weed control at 15.625 g/ha [11] | pest or weed control at 62.5 g/ha [11] | pest or weed control at 250 g/ha [11] | plant injury at 15.625 g/ha (corn (Zea mays) [12]) | plant injury at 62.5 g/ha (corn (Zea mays) [12]) | plant injury at 250 g/ha (corn (Zea mays) [12])

CN1C[C@@H](c2ccc(C(F)(F)F)cc2)[C@H](C(=O)Nc2ccnnc2)C1=O (racemic) [Compound 1518]
0%: pest or weed control at 15.625 g/ha [1] | pest or weed control at 62.5 g/ha [1] | pest or weed control at 250 g/ha [1] | pest or weed control at 15.625 g/ha [2] | pest or weed control at 62.5 g/ha [2] | pest or weed control at 250 g/ha [2] | pest or weed control at 15.625 g/ha [3] | pest or weed control at 62.5 g/ha [3] | pest or weed control at 250 g/ha [3] | pest or weed control at 15.625 g/ha [4] | pest or weed control at 62.5 g/ha [4] | pest or weed control at 250 g/ha [4] | pest or weed control at 15.625 g/ha [5] | pest or weed control at 62.5 g/ha [5] | pest or weed control at 250 g/ha [5] | plant injury at 15.625 g/ha (corn (Zea mays) [6]) | plant injury at 62.5 g/ha (corn (Zea mays) [6]) | plant injury at 250 g/ha (corn (Zea mays) [6]) | pest or weed control at 15.625 g/ha [7] | pest or weed control at 62.5 g/ha [7] | pest or weed control at 250 g/ha [7] | pest or weed control at 15.625 g/ha [8] | pest or weed control at 62.5 g/ha [8] | pest or weed control at 250 g/ha [8] | pest or weed control at 15.625 g/ha [9] | pest or weed control at 62.5 g/ha [9] | pest or weed control at 250 g/ha [9] | pest or weed control at 15.625 g/ha [10] | pest or weed control at 62.5 g/ha [10] | pest or weed control at 250 g/ha [10] | pest or weed control at 15.625 g/ha [11] | pest or weed control at 62.5 g/ha [11] | pest or weed control at 250 g/ha [11] | plant injury at 15.625 g/ha (corn (Zea mays) [12]) | plant injury at 62.5 g/ha (corn (Zea mays) [12]) | plant injury at 250 g/ha (corn (Zea mays) [12])
